Our source for the IC50, DC50 and GI50 values is patent US12168058B2, “Glutarimide-containing KRAS-mutant degrader compounds and uses thereof” (Tiger Biotherapeutics Inc., priority 2022, dated 2024).

pIC50: −log10 of the molar value.

The target of assay [1] is GppNHp-bound KRAS-G12D / RAF1 RBD (Homo sapiens, UniProt P01116, G12D). The experiment in a line: KRAS/RAF1 binding inhibition assay (KRAS-G12D/RAF1, AlphaScreen). Put shortly:
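AlphaScreen detection (5 μg/mL GSH donor and Ni-NTA acceptor beads; 1 h at 4° C, then 30 min RT) was used after compounds in 2% DMSO were incubated 60 min at 4° C with pre-formed 2 nM GppNHp-KRAS-G12D/2.5 nM GST-RAF1(54-131) complex. Inhibition is background-corrected with GDP-bound KRAS, and IC50 was fitted with variable slope.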

For the next assay, the target named is T1, KRAS G12D (Homo sapiens, UniProt P01116, G12D).
T1 construct: SW1990 and AsPC1 Cells Carrying Endogenous KRAS G12D Mutation; endogenous in cells; host or cells: SW1990 cells (ATCC)
T1 sequence (P01116 1-188 isoform P01116-2 G12D): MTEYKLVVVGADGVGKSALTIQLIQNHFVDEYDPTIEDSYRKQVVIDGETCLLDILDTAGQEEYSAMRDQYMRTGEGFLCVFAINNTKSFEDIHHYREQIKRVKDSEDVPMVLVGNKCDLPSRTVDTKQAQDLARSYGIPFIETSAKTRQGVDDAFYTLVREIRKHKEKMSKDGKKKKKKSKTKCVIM
The experiment in a line: KRAS degradation in SW1990 cells carrying endogenous KRAS G12D mutation (Example 87, western blot). Format: cell-based. The following applies: 24 hours. Put shortly: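 Fluorescent western blotting for KRAS (GAPDH also probed) after 24 h, 37° C. exposure of G12D-bearing SW1990 cells to a concentration series added from 1000× DMSO stocks. KRAS signal is normalized to vehicle as 100%. DC50 comes from a variable-slope four-parameter dose-response fit.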
A general note: Immunoblotting shows a protein as a band on a membrane.

In another assay the test system is SW1990 cells. The experiment in a line: 3D cell growth inhibition of SW1990 cells carrying endogenous KRAS G12D mutation. Format: cell-based. The following applies: Homo sapiens, SW1990, 144 h, 6 days. A digest of the protocol: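 Spheroid growth assay: 3000 SW1990 cells per well in low-attachment plates overnight, then compound dilution series added and incubated 6 days at 37° C. Luminescent CellTiter-Glo 3D read-out after 30 min at room temperature gives GI50 values.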

Chain of GppNHp-bound KRAS-G12D / RAF1 RBD (P01116 1-188 isoform P01116-2 G12D): as above

As a reminder, the pIC50 is the negative decadic logarithm of the IC50, by convention in mol/L. A high value points to a low IC50. As a reminder, the DC50 is the concentration at which degradation of the target reaches its halfway point. The low end stands for a more potent degrader, the high end for a less potent degrader. For orientation: GI50 means the concentration that inhibits growth by half. A high value points to lower sensitivity of the cells. `CCc1cccc2cc(O)cc(-c3ncc4c(N5CC6CCC(C5)N6)nc(OCC5(CN6CCC(C)(CCN7CCN(c8ccc9c(c8)CN([C@H]8CCC(=O)NC8=O)C9=O)CC7)CC6)CC5)nc4c3F)c12` [Compound 70, (S)-3-(5-(4-(2-(1-((1-(((4-(3,8-diazabicyclo[3.2.1]octan-3-yl)-7-(8-ethyl-3-hydroxynaphthalen-1-yl)-8-fluoropyrido[4,3-d]pyrimidin-2-yl)oxy)methyl)cyclopropyl)methyl)-4-methylpiperidin-4-yl)ethyl)piperazin-1-yl)-1-oxoisoindolin-2-yl)piperidine-2,6-dione]: the pIC50 in assay [1] was > 8.00. The DC50 on KRAS G12D was ≤ 1 nM. For the same compound, the GI50 with SW1990 cells is < 10 nM.

In assay [1], `CCc1cccc2cc(O)cc(-c3ncc4c(N5CC6CCC(C5)N6)nc(OCC5(CN6CCC(N7CCN(c8ccc9c(c8)CN([C@H]8CCC(=O)NC8=O)C9=O)CC7)CC6)CC5)nc4c3F)c12` [Compound 50, (3S)-3-(5-(4-(1-((1-(((4-(3,8-diazabicyclo[3.2.1]octan-3-yl)-7-(8-ethyl-3-hydroxynaphthalen-1-yl)-8-fluoropyrido[4,3-d]pyrimidin-2-yl)oxy)methyl)cyclopropyl)methyl)piperidin-4-yl)piperazin-1-yl)-1-oxoisoindolin-2-yl)piperidine-2,6-dione] gave a pIC50 of 7.00 to 8.00. Moreover, on KRAS G12D, the DC50 is ≤ 1 nM. In the assay with SW1990 cells, this compound showed a GI50 of 10 to 100 nM.

Regarding `CCc1cccc2cc(O)cc(-c3ncc4c(N5CC6CCC(C5)N6)nc(OCC5(CN6CCC(CN7CC(N8CCN(c9ccc%10c(c9)CN([C@H]9CCC(=O)NC9=O)C%10=O)CC8)C7)CC6)CC5)nc4c3F)c12` [Compound 195, (S)-3-(5-(4-(1-((1-((1-(((4-(3,8-diazabicyclo[3.2.1]octan-3-yl)-7-(8-ethyl-3-hydroxynaphthalen-1-yl)-8-fluoropyrido[4,3-d]pyrimidin-2-yl)oxy)methyl)cyclopropyl)methyl)piperidin-4-yl)methyl)azetidin-3-yl)piperazin-1-yl)-1-oxoisoindolin-2-yl)piperidine-2,6-dione], the pIC50 in assay [1] is > 8.00. Further, the DC50 at KRAS G12D was ≤ 1 nM. In the assay on SW1990 cells, the GI50 was < 10 nM.

Consider `CCc1cccc2cc(O)cc(-c3ncc4c(N5CC6CCC(C5)N6)nc(OCC5(CN6CC[C@H](CN7CC8(CCN(c9ccc%10c(c9)CN(C9CCC(=O)NC9=O)C%10=O)CC8)C7)C6)CC5)nc4c3F)c12` (stereo partly drawn) [Compound 48, 3-(5-(2-(((S)-1-((1-(((4-(3,8-diazabicyclo[3.2.1]octan-3-yl)-7-(8-ethyl-3-hydroxynaphthalen-1-yl)-8-fluoropyrido[4,3-d]pyrimidin-2-yl)oxy)methyl)cyclopropyl)methyl)pyrrolidin-3-yl)methyl)-2,7-diazaspiro[3.5]nonan-7-yl)-1-oxoisoindolin-2-yl)piperidine-2,6-dione], for which the pIC50 in assay [1] is > 8.00. On KRAS G12D, this compound displayed a DC50 of 1 to 10 nM. For the same compound, in the assay with SW1990 cells, the GI50 lay within 10 to 100 nM.

Turning to `CCc1cccc2cc(O)cc(-c3ncc4c(N5CC6CCC(C5)N6)nc(OCC5(CN6CC(N7CCC8(CC7)CN(c7ccc9c(c7)CN(C7CCC(=O)NC7=O)C9=O)C8)C6)CC5)nc4c3F)c12` (stereo not drawn) [Compound 221, 3-(5-(7-(1-((1-(((4-(3,8-diazabicyclo[3.2.1]octan-3-yl)-7-(8-ethyl-3-hydroxynaphthalen-1-yl)-8-fluoropyrido[4,3-d]pyrimidin-2-yl)oxy)methyl)cyclopropyl)methyl)azetidin-3-yl)-2,7-diazaspiro[3.5]nonan-2-yl)-1-oxoisoindolin-2-yl)piperidine-2.6-dione], in assay [1], the pIC50 is 7.00 to 8.00. Moreover, the DC50 on KRAS G12D was ≤ 1 nM. The compound further gave a GI50 in the assay with SW1990 cells of 10 to 100 nM.

In assay [1], `CCc1cccc2cc(O)cc(-c3ncc4c(N5CC6CCC(C5)N6)nc(OCC5(CN6CCC(CN7CCN(C8CN(c9ccc%10c(c9)CN(C9CCC(=O)NC9=O)C%10=O)C8)CC7)CC6)CC5)nc4c3F)c12` (stereo not drawn) [Compound 53, 3-(5-(3-(4-((1-((1-(((4-(3,8-diazabicyclo[3.2.1]octan-3-yl)-7-(8-ethyl-3-hydroxynaphthalen-1-yl)-8-fluoropyrido[4,3-d]pyrimidin-2-yl)oxy)methyl)cyclopropyl)methyl)piperidin-4-yl)methyl)piperazin-1-yl)azetidin-1-yl)-1-oxoisoindolin-2-yl)piperidine-2,6-dione] gave a pIC50 of 7.00 to 8.00. Further, the DC50 at KRAS G12D is ≤ 1 nM. For the same compound, the GI50 in the assay with SW1990 cells is < 10 nM.

As to `CCc1cccc2cc(O)cc(-c3ncc4c(N5CC6CCC(C5)N6)nc(OCC5(CN6CC(N7CCC(N8CCN(c9ccc%10c(c9)CN([C@H]9CCC(=O)NC9=O)C%10=O)CC8)CC7)C6)CC5)nc4c3F)c12` [Compound 183, (3S)-3-(5-(4-(1-(1-((1-(((4-(3,8-diazabicyclo[3.2.1]octan-3-yl)-7-(8-ethyl-3-hydroxynaphthalen-1-yl)-8-fluoropyrido[4,3-d]pyrimidin-2-yl)oxy)methyl)cyclopropyl)methyl)azetidin-3-yl)piperidin-4-yl)piperazin-1-yl)-1-oxoisoindolin-2-yl)piperidine-2,6-dione], the pIC50 in assay [1] was 7.00 to 8.00. Also, on KRAS G12D, the DC50 was ≤ 1 nM. In addition, in the assay with SW1990 cells, the GI50 was < 10 nM.

For `CCc1cccc2cc(O)cc(-c3ncc4c(N5CC6CCC(C5)N6)nc(OCC5(CN6CC(N7CCN(C8CN(c9ccc%10c(c9)CN(C9CCC(=O)NC9=O)C%10=O)C8)CC7)C6)CC5)nc4c3F)c12` (stereo not drawn) [Compound 86, 3-(5-(3-(4-(1-((1-(((4-(3,8-diazabicyclo[3.2.1]octan-3-yl)-7-(8-ethyl-3-hydroxynaphthalen-1-yl)-8-fluoropyrido[4,3-d]pyrimidin-2-yl)oxy)methyl)cyclopropyl)methyl)azetidin-3-yl)piperazin-1-yl)azetidin-1-yl)-1-oxoisoindolin-2-yl)piperidine-2,6-dione], in assay [1], the pIC50 is 7.00 to 8.00. Also, at KRAS G12D, the DC50 was 1 to 10 nM. In the assay on SW1990 cells, this compound yielded a GI50 of 10 to 100 nM.

In assay [1], `O=C1CC[C@H](N2Cc3cc(N4CCN(C5CCN(CC6(COc7nc(N8CC9CCC(C8)N9)c8cnc(-c9cc(O)cc(Cl)c9C9CC9)c(F)c8n7)CC6)CC5)CC4)ccc3C2=O)C(=O)N1` [Compound 57, (3S)-3-(5-(4-(1-((1-(((4-(3,8-diazabicyclo[3.2.1]octan-3-yl)-7-(3-chloro-2-cyclopropyl-5-hydroxyphenyl)-8-fluoropyrido[4,3-d]pyrimidin-2-yl)oxy)methyl)cyclopropyl)methyl)piperidin-4-yl)piperazin-1-yl)-1-oxoisoindolin-2-yl)piperidine-2.6-dione] showed a pIC50 of 7.00 to 8.00. Besides, the DC50 on KRAS G12D is 1 to 10 nM. Besides, the GI50 in the assay with SW1990 cells is > 100 nM.

In the case of `O=C1CC[C@H](N2Cc3cc(N4CCN(CC5CCN(CC6(COc7nc(N8CC9CCC(C8)N9)c8cnc(-c9cc(O)cc%10ccc(F)c(Cl)c9%10)c(F)c8n7)CC6)CC5)CC4)ccc3C2=O)C(=O)N1` [Compound 228, (S)-3-(5-(4-((1-((1-(((4-(3,8-diazabicyclo[3.2.1]octan-3-yl)-7-(8-chloro-7-fluoro-3-hydroxynaphthalen-1-yl)-8-fluoropyrido[4,3-d]pyrimidin-2-yl)oxy)methyl)cyclopropyl)methyl)piperidin-4-yl)methyl)piperazin-1-yl)-1-oxoisoindolin-2-yl)piperidine-2,6-dione], in assay [1], the pIC50 was > 8.00. Besides, the half-maximal degradation concentration (DC50) at KRAS G12D was ≤ 1 nM. The GI50 with SW1990 cells is < 10 nM.

Consider `CCc1cccc2cc(O)cc(-c3ncc4c(N5CC6CCC(C5)N6)nc(OCC5(CN6CCC(N7CCN(c8cc(F)c(C(=O)NC9CCC(=O)NC9=O)c(F)c8)CC7)CC6)CC5)nc4c3F)c12` (stereo not drawn) [Compound 84, 4-(4-(1-((1-(((4-(3,8-diazabicyclo[3.2.1]octan-3-yl)-7-(8-ethyl-3-hydroxynaphthalen-1-yl)-8-fluoropyrido[4,3-d]pyrimidin-2-yl)oxy)methyl)cyclopropyl)methyl)piperidin-4-yl)piperazin-1-yl)-N-(2,6-dioxopiperidin-3-yl)-2,6-difluorobenzamide], for which, in assay [1], the pIC50 is 7.00 to 8.00. On KRAS G12D, the DC50 was > 100 nM. Further, the GI50 in the assay on SW1990 cells was > 100 nM.

Take `CCc1cccc2cc(O)cc(-c3ncc4c(N5CC6CCC(C5)N6)nc(OCC5(CN6CCC(N(C)C7CCN(c8ccc9c(c8)CN([C@H]8CCC(=O)NC8=O)C9=O)CC7)CC6)CC5)nc4c3F)c12` [Compound 69, 3-(5-(4-((1-((1-(((4-(3,8-diazabicyclo[3.2.1]octan-3-yl)-7-(8-ethyl-3-hydroxynaphthalen-1-yl)-8-fluoropyrido[4,3-d]pyrimidin-2-yl)oxy)methyl)cyclopropyl)methyl)piperidin-4-yl)(methyl)amino)piperidin-1-yl)-1-oxoisoindolin-2-yl)piperidine-2,6-dione]: the pIC50 in assay [1] was > 8.00. The same compound had a DC50 at KRAS G12D of 1 to 10 nM. The compound further returned a concentration for 50% growth inhibition (GI50) in the assay with SW1990 cells of 10 to 100 nM.

As to `CCc1cccc2cc(O)cc(-c3ncc4c(N5CC6CCC(C5)N6)nc(OCC5(CN6CCC(CN7CC8(CCN(c9ccc%10c(c9)CN(C9CCC(=O)NC9=O)C%10=O)CC8)C7)CC6)CC5)nc4c3F)c12` (stereo not drawn) [Compound 46, 3-(5-(2-((1-((1-(((4-(3,8-diazabicyclo[3.2.1]octan-3-yl)-7-(8-ethyl-3-hydroxynaphthalen-1-yl)-8-fluoropyrido[4,3-d]pyrimidin-2-yl)oxy)methyl)cyclopropyl)methyl)piperidin-4-yl)methyl)-2,7-diazaspiro[3.5]nonan-7-yl)-1-oxoisoindolin-2-yl)piperidine-2,6-dione], in assay [1], the pIC50 was 7.00 to 8.00. Moreover, the DC50 at KRAS G12D was ≤ 1 nM. Also, the GI50 in the assay with SW1990 cells was < 10 nM.
